The values that follow come from patent publication US5126258A (priority 1988, dated 1992).

Series [1] relates to monoclonal antibody P3 6D4. In words: Ester hydrolysis by monoclonal antibody P3 6D4, HPLC. Format: biochemical, mouse. The following applies: pH 8.0. Here is the method: FIG. 3 illustrates the rate of hydrolysis of a carboxylic ester (Compound 7) determined by HPLC under the conditions described in Table 1 (50 mM phosphate buffer at pH 8.0 and 23 degrees C). ( ) Uncatalyzed (background)rate of hydrolysis. (.quadrature.) Effect of 0.5 micromolar non-specific monoclonal IgG. ( ) 0.1 Micromolar anti-Compound 4 monoclonal antibody from hybridoma P3 6D4. The superimposed curve represents a theoretical exponential decay which fits the data points.
In particular, an exemplary monoclonal receptor was produced by the standard hybridoma technology of Kohler et al., Nature, 256, 495 (1975). Specifically, female 129G1X^+ mice were immunized by intraperitoneal injection with an inoculum of 100 micrograms of conjugate (e.g., Compound 4i bound to KLH) in 300 microliters of a 1:1 mixture of phosphate buffered saline (PBS) pH 7.4 and complete Freund's adjuvant. Two weeks later, the mice were again injected in a like manner with 50 micrograms of the foregoing conjugate in 300 microliters of a 1:1 mixture of PBS (pH 7.4) and 10 mg/ml alum. After an additional eight weeks, the mice were immunized intravenously with 50 micrograms of the conjugate in 200 microliters of PBS (pH 7.4). The spleens were removed from the mice 4 days later, and the spleen cells were fused to myeloma cells.
(§1) The lack of spectroscopic distinction between such esters and their hydrolysis products recommended a chromatographic analysis of the process. Referring to FIG. 3, a mixture of Compound 7 (5 uM) and the monoclonal antibody from hybridoma P3 6D4 (0.1 uM) in phosphate buffer (50 mM, pH 8.0) was analyzed over time by high performance liquid chromatography (HPLC). The accelerated hydrolysis of the ester was apparent from the decrease of its peak and the concurrent increase in two new peaks that correspond with the expected products. Under these conditions, the ester is completely consumed in 60-80 minutes during which time the background rate accounts for about 12 to 16 percent hydrolysis. The chromatographic profile is the same as that produced by treatment with hog liver esterase.
(§2) *Hydrolysis of carboxylic esters by monoclonal antibody (from hybridoma P
(§3) 6D4) and by hog liver esterase (Sigma Chemical Co., St. Louis, MO, EC
(§4) 3.1.1.1) determined by HPLC on an analytical RPC18 column (Vydac 218TP54)
(§5) with isocratic elution [acetonitrile: water plus 0.1 percent
(§6) trifluoroacetic acid; (35:65)] at a flow rate of 1.0 ml/min and the
(§7) detector set at 245 nm. The initial substrate concentration was 5
(§8) micromolar and that the internal standard (acetophenone) was 10 microm
(§9) olar in 50 mM phosphate buffer at pH 8.0. The retention times (minutes)
(§10) were as follows: acetophenone, 5.0; Compound 7, 8.3; Compound 8, 6.7;
(§11) Compound 9, 4.1; Compound 10, 11.1 (40 percent acetonitrile elution);
(§12) Compound 11, 8.2. The antibody concentration was 15 micrograms/ml (0.1
(§13) micromolar) and that of esterase was 5.5 micrograms/ml. The reaction
(§14) mixtures were kept at 25 degrees C. and aliquots were analyzed at
(§15) intervals of 2 to 20 minutes. Three or more determinations were used to
(§16) plot a curve from which the halflife of the reaction is estimated (see

In series [2] the test system is hog liver esterase. Format: biochemical. The following applies: pig, 5 µM, pH 8. Here is the method: as §1, §2, §3, §4, §5, §6, §7, §8, §9, §10, §11, §12, §13, §14, §15, §16
Series [3] relates to monoclonal receptor P3 6D4. The series can be described thus: Stoichiometric transacylation reaction of monoclonal receptor P3 6D4 with coumarin ester Compound 5 (fluorescence) and its inhibition/inactivation. Type of series: biochemical, mouse. Here is the method: A Perkin-Elmer LS-5 fluorescence spectrometer was operated at a fixed wavelength, using 355 nanometers (nm) for excitation and measuring the emission at 455 nm. A stock solution of the coumarin ester 5 was prepared in dioxane and was diluted to the desired concentrations in Tris-HCl (50 mM, pH 7) or sodium phosphate (50 mM, pH 4-9).
Reactions were run at 23 degrees C and were initiated by the addition of an aliquot of antibody solution (1 mg/ml) to substrate solutions to provide a final protein concentration of 100 nM. Final fluorescence values were determined by hydrolysis of the substrate with pig liver esterase. The observed reaction rate was corrected for spontaneous hydrolysis. Reaction kinetics were studied by measuring initial rates under pseudo-first order conditions. Active protein concentration was extrapolated from fluorescence values at the end of the reaction. The kinetic parameters were obtained by fitting the data to a hyperbolic curve and from double reciprocal plots. Inhibition constants were determined from the Lineweaver-Burk plot data with at least five inhibitor concentrations. All the data were studied by a least squares analysis.
Antibody preparations were inactivated without introducing fluorescent products by the addition of the activated ester (Compound 8) in dioxane to a solution of the IgG (5 mg/ml) in Tris-HCl (50 mM, pH 6.5) at a ratio of 5 moles of the ester (Compound 8) per mole IgG.
Protein modification was performed in an analogous manner, by the addition of a dioxane solution of the reagent at a known concentration to the antibody. The solution was incubated for 30 minutes before filtration through Sephadex G-25. The activity remaining was compared to control samples. Aliquots of IgG (5 mg/ml) inactivated with the ester (Compound 8) were diluted with four volumes of phosphate buffer (50 mM, pH 4-9, at intervals of 1 pH unit). Any pH change was recorded, and the sample was stored at 4 degrees C for 24 hours.
Initially, the ester was used at a concentration that was about four-fold greater than that of the protein, and the mixture was incubated at pH 7.2 for 10 minutes. Any change in fluorescence above background was noted.
The termination of the reaction is noted by the return of the rate of fluorescence increase to the background level.

“Also recorded” adds a separate entry of the source.

On to `O=C(Cc1ccc(NC(=O)C(F)(F)F)cc1)Oc1ccccc1` [Compound 10], for which the “accelerated hydrolysis by P3 6D4 (substrate acceptance)” value in series [1] is given as “no effect on the hydrolytic rate; also recorded: not catalyzed”. In addition, in series [2], the “t1/2 Esterase” value was 2 min. In addition, the “stoichiometric antibody reaction (release of alcohol)” value in series [3] is “Neither is the stoichiometric reaction apparent”.
